Key:
EMC virus = assay: Test Example 1: inhibitory effects on EMCV in A549 cells, MTT assay; type: cell-based; details: A549 cells infected with EMC virus, IFN 20 IU/ml, fluvastatin 5 μM, UDCA 61.9 μM as named
[1] = human, in vivo; cited from earlier work
[2] = in vivo, absorbed by passive diffusion; cited from earlier work

SMILES	Average (MTT absorbance) (EMC virus; absorbance 550-600 nm, N 10)	Survival rate (antivirus activity) (EMC virus; vehicle = 0.0)	hepatitis patients with continuous increase in transaminase levels [1]	share of such patients with increase in blood transaminase levels within 12 weeks after administration [1]	transaminase level elevation relative to upper limit of normal [1]	absorbed drug excreted in the form of bile [2]
CC(C)n1c(/C=C/C(O)CC(O)CC(=O)O)c(-c2ccc(F)cc2)c2ccccc21 (racemic) [Fluvastatin, [R,S-(E)]-(±)-7-[3-(4-fluorophenyl)-1-(1-methylethyl)-1H-indol-2-yl]-3,5-dihydroxy-6-heptanoate]	0.8638	1.7	about 1.1%	At least 90%	at least 3 times the upper limit of normal	
C[C@H](CCC(=O)O)[C@H]1CC[C@H]2[C@@H]3[C@@H](O)C[C@@H]4C[C@H](O)CC[C@]4(C)[C@H]3CC[C@]12C [ursodeoxycholic acid]						about 50%

Source: US20100272797A1, “Pharmaceutical Composition for Treating Hepatitis C Virus Infection Comprising HMG-COA Reductase Inhibitor and Bile Acid” (HANALL PHARMACEUTICAL COMPANY, LTD., priority 2007, published 2010)
